Data reported in ChEMBL document CHEMBL1201862, “PubChem BioAssay data set” (2004).
Activity calls are given as the source filed them.

Key:
P388/ADR = test: cells; type: functional; settings: Mus musculus
SN12K1 = test: cells; type: functional; settings: Homo sapiens
P388 = test: cells; type: functional; settings: Mus musculus
[1] = biological target: Voltage-gated inwardly rectifying potassium channel KCNH2 (Homo sapiens, UniProt Q12809); settings: Potency;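 further: confirmatory quantitative high-throughput screen measuring inhibition of hERG channel activity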
[2] = luciferase reporter signal suppression in cells – H4 neuroglioma cells, luminescence, dose response (AID 1990); type: functional, cell-based
[3] = Luminescence Cell-Based Dose Response HTS to Identify Inhibitors of 5'UTR Stem-Loop Driven Prion Protein mRNA Translation in H4 Neuroglioblastoma Cells. [Related pubchem assays: 1827 (Project Summary), 1813 (Primary HTS)]; type: functional
[4] = alpha-synuclein stem-loop luciferase translation blockers – H4 neuroglioma cells, luminescence, confirmation (AID 1988); type: functional, cell-based
[5] = biological target: T1, Ubiquitin-conjugating enzyme E2 N (Homo sapiens, UniProt P61088); type: functional;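 further: Dose-response confirmation in a TR-FRET assay detecting UBC13-driven polyubiquitin chain formation, inhibition measured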
T1 sequence (P61088 whole entry): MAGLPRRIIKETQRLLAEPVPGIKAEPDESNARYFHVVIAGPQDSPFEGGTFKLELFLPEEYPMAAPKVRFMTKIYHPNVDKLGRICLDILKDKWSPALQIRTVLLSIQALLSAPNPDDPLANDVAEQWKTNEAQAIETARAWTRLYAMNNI

[6] = biological target: T2, Endoribonuclease toxin MazF (Escherichia coli K-12, UniProt P0AE70); test: activation of MazEF endoribonuclease cleavage – biochemical, fluorescence, single-stranded RNA substrate, uHTS hits, dose response (AID 588481); type: functional
T2 sequence (P0AE70 whole entry): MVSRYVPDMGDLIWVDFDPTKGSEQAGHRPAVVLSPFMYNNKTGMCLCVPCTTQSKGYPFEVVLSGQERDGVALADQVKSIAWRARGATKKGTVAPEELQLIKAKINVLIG

[7] = biological target: T2, Endoribonuclease toxin MazF; test: substrate-only fluorescence increase artefacts – biochemical, single-stranded RNase substrate, counter-screen for MazEF activator project, dose response (AID 588502); type: functional
Cytochrome P450 3A4 = Cytochrome P450 3A4 (Homo sapiens, UniProt P08684); settings: Potency;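 further: confirmatory qHTS run detecting inhibitors and substrates of CYP3A4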
[8] = biological target: 26S proteasome non-ATPase regulatory subunit 14 (Homo sapiens, UniProt O00487); test: inhibition of proteasome subunit RPN11 – biochemical, fluorescence polarization, uHTS hits, confirmation (AID 602368); type: functional
[9] = biological target: 72 kDa type IV collagenase (Homo sapiens, UniProt P08253); test: Dose Response validation of uHTS RPN11 inhibitor hits using a MMP-2 Fluorescence assay.; type: functional
Prothrombin = Prothrombin (Bos taurus, UniProt P00735); test: thrombin protease inhibitors – biochemical, fluorescence polarization, uHTS hits, dose response (AID 602369); type: functional
[10] = microbe, parasite or virus in culture; type: functional; settings: Mycobacterium tuberculosis
[11] = biological target: T3, Short transient receptor potential channel 4 (Mus musculus, UniProt Q9QUQ5); test: calcium entry via TRPC4 opening agents – cell-based, HEK293 TRPC4/mu-opioid, Fluo-4 calcium, dose response (AID 434937); type: functional
T3 sequence (Q9QUQ5 whole entry): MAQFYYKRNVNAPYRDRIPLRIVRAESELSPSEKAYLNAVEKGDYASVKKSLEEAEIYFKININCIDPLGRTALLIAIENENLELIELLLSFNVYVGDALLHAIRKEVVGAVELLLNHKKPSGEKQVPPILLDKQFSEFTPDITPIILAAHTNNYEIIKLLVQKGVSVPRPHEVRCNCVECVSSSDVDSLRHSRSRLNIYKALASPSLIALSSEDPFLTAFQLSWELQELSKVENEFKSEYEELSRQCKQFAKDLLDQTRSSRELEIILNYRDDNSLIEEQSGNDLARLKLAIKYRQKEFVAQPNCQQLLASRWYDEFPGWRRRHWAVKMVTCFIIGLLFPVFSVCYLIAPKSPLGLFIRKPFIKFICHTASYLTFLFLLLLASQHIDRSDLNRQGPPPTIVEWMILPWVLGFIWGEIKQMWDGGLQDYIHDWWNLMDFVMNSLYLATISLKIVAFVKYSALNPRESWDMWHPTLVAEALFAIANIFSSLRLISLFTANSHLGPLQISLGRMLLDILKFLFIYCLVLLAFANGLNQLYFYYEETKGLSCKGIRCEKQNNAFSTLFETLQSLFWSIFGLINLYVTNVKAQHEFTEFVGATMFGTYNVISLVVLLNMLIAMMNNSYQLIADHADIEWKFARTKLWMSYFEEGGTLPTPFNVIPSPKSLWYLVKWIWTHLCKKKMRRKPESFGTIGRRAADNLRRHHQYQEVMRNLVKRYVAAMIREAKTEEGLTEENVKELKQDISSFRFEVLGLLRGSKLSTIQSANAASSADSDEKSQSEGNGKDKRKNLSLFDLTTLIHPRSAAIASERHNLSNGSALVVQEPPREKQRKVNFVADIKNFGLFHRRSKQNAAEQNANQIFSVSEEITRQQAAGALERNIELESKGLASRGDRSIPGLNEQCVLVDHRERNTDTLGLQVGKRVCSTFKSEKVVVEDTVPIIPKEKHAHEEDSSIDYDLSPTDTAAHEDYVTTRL

[12] = NIH-3T3 fibroblast cytotoxicity, dose response, cytotoxicity control, cell-based, fluorescence, Alamar Blue, secondary assay (AID 2327); type: functional;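 further: NIH-3T3 mouse fibroblasts cultured with fluconazole at 8 µg/mL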
[13] = fluconazole-exposed Candida albicans growth modulators – fluorescence, retest, confirmation (AID 2467); type: functional, cell-based
[14] = biological target: Heat shock protein HSP 90-alpha (Homo sapiens, UniProt P07900); type: functional, organism-based
[15] = test system: Streptococcus sp. 'group A'; test: Streptococcus pyogenes SK(-)GAS viability under kanamycin – luminescence, BacTiterGlo, confirmation, counter-screen for streptokinase expression inhibitor project, dose response (AID 1900); type: functional, organism-based
Streptococcus = test: GAS UMAA2166 growth inhibition – luminescence, BacTiterGlo, counter-screen for streptokinase expression inhibitor project, dose response (AID 1915); type: functional, organism-based;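 further: potency for reduction of bacterial viability or growth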
INS1 = test: INS-1E survival protection against cytokine death – cell-based, luminescence, retest, dose response (AID 449756); type: functional; settings: Rattus norvegicus;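 further: cell death triggered by IL-1 beta plus TNF-alpha plus IFN-gamma mixture; protective hits raise ATP signal compared with cytokine alone wells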
[16] = Luminescence Cell-Based Dose Retest to Confirm Inhibitors of Cancer Stem Cells. [Related pubchem assays (depositor defined):AID2717, AID2721]; type: functional; settings: Homo sapiens
cells = type: functional
[17] = biological target: T4, Replicative DNA helicase DnaB (Mycobacterium tuberculosis, UniProt P9WMR3); test: DnaB intein splicing inhibitors, dose response, biochemical, cell-free fluorescence (AID 449749); type: functional
T4 sequence (P9WMR3 whole entry): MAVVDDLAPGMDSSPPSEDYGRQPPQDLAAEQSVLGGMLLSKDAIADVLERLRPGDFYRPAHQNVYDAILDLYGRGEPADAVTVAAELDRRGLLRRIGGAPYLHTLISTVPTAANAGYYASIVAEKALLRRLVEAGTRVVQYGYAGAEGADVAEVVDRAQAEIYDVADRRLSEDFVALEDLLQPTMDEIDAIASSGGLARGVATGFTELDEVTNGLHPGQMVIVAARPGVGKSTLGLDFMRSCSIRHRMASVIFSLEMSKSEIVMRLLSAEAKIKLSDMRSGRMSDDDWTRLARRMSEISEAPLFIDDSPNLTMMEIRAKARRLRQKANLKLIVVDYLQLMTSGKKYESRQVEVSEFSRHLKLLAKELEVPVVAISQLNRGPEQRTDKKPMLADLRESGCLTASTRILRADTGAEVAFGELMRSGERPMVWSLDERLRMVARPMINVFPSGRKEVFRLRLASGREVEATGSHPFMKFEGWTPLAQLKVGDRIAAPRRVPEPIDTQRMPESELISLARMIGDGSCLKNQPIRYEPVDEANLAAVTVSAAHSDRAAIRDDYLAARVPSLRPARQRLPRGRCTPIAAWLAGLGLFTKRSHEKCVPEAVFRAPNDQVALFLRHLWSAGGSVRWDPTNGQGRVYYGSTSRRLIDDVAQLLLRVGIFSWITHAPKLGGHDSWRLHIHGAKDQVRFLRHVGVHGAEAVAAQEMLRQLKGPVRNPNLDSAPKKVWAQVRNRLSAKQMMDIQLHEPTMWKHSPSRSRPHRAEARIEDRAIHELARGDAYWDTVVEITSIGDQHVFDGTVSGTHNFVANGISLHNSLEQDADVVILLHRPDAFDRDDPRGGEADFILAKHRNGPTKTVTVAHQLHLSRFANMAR

Protein RecA = biological target: T5, Protein RecA (Mycobacterium tuberculosis, UniProt P9WHJ3); test: Fluorescence Cell-Free Homogeneous Dose Retest to Identify Inhibitors of RecA-Intein Splicing Activity. [Related pubchem assays (depositor defined):AID2097, AID2223, AID489010, AID492950]; type: functional
T5 sequence (P9WHJ3 whole entry): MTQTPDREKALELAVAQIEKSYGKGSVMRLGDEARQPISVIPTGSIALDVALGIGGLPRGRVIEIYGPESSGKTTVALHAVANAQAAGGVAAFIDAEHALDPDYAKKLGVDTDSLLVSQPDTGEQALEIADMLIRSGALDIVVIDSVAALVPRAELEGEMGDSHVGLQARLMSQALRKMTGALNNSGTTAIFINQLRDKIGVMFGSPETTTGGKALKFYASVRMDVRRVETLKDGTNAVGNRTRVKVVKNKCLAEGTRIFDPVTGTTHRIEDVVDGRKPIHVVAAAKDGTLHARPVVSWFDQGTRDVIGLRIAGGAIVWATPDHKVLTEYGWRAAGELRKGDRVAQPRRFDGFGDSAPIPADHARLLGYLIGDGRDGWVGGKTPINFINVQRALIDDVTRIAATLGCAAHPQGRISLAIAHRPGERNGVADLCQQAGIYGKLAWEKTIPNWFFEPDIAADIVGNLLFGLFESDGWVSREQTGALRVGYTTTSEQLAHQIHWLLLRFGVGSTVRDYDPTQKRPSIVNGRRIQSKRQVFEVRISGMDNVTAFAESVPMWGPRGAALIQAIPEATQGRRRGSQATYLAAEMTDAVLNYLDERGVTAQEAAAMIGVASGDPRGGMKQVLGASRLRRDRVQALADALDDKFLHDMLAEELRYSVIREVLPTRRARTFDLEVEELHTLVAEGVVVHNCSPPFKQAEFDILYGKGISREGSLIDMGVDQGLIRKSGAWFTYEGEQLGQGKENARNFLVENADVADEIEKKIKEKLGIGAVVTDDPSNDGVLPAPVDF

Voltage-gated inwardly rectifying potassium channel KCNH2, sequence (Q12809 whole entry): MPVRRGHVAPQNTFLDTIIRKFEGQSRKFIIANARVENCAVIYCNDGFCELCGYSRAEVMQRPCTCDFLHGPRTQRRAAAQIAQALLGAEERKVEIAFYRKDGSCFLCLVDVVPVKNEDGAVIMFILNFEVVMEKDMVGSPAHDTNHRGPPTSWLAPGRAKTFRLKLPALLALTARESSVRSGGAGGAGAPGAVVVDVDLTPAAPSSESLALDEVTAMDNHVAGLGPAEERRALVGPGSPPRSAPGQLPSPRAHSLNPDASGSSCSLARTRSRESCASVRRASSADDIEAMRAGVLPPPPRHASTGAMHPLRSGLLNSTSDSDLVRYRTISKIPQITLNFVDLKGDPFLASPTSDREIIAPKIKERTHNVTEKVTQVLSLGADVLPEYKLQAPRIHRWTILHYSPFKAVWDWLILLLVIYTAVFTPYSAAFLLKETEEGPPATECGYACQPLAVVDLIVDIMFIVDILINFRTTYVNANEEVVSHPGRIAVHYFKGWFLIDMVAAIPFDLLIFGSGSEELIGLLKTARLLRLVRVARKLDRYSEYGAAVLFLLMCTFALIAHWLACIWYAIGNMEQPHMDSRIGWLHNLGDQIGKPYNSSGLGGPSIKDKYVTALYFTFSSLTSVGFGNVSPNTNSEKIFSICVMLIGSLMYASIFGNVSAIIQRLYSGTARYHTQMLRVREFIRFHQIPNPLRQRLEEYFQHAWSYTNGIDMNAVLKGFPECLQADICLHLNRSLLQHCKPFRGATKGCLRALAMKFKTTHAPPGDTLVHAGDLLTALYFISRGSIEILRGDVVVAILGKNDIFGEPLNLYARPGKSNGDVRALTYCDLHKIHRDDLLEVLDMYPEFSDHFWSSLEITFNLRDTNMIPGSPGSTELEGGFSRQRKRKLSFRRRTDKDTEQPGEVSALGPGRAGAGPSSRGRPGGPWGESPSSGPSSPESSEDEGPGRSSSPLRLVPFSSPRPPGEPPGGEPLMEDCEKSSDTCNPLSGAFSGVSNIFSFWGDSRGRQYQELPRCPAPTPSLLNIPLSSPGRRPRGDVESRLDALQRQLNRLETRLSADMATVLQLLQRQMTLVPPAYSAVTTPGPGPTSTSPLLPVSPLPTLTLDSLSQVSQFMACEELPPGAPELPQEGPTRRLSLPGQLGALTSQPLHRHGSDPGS
72 kDa type IV collagenase, sequence (P08253 whole entry): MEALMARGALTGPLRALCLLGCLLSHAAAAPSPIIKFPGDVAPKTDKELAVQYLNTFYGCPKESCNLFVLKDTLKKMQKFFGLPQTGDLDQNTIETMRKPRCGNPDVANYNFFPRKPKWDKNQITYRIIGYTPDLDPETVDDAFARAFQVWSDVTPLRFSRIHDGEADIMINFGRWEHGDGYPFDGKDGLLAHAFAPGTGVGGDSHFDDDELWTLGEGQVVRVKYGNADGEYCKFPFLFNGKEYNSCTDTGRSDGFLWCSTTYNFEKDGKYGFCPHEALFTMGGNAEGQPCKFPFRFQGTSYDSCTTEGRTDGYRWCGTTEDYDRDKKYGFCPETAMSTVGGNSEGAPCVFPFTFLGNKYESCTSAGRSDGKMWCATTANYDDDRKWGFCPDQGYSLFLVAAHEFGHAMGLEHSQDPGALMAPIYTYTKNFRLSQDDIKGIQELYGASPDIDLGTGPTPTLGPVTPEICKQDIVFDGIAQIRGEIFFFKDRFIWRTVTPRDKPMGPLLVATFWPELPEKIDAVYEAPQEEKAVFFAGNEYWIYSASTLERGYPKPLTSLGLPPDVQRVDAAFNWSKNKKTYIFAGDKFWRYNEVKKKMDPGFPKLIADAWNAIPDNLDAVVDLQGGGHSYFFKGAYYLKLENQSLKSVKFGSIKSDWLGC
26S proteasome non-ATPase regulatory subunit 14, sequence (O00487 whole entry): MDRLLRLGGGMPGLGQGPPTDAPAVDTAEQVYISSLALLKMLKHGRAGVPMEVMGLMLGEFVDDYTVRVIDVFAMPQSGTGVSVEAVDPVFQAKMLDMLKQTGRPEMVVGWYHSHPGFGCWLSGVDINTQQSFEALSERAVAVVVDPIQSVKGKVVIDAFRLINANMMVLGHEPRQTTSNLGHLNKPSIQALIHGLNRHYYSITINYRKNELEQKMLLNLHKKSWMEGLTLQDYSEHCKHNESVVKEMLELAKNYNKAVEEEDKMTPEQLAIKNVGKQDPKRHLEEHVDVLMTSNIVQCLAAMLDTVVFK
Cytochrome P450 3A4, sequence (P08684 whole entry): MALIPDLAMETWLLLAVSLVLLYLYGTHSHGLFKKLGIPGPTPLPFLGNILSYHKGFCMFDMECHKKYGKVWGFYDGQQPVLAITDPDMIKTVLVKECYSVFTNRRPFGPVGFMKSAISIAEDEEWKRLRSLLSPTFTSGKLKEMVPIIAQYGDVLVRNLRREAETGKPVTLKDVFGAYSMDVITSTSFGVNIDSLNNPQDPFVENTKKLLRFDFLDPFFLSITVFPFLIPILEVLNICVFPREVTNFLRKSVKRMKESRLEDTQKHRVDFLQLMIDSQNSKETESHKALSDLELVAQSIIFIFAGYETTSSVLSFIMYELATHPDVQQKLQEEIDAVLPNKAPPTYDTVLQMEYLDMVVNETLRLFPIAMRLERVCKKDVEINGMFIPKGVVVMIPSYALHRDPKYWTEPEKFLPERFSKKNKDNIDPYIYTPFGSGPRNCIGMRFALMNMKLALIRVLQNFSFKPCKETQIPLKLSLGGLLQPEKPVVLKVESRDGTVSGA

Nc1nc2[nH]c(=O)cnc2c(=O)[nH]1 [ISOXANTHOPTERIN]
GI50 (P388/ADR): > 125 µM (inactive)
GI50 (SN12K1): > 125 µM (inactive)
GI50 (P388): > 125 µM (inactive)
AC50 [1]: 17.8 µM (inconclusive)

COC(=O)c1c(NC(=O)c2nc3ccccc3s2)sc2c1CC(C)(C)NC2(C)C
EC50 [2]: 8.05 µM (active)
EC50 [3]: 8.33 µM (active)
EC50 [4]: 8.54 µM (active)
IC50 [5]: > 20 µM (inactive)
EC50 [6]: > 99 µM (inactive)
EC50 [7]: > 99 µM (inactive)

CCCCCCCC/C=C\CCCCCCCC(=O)N(CCO)CCO
AC50 (Cytochrome P450 3A4): 12.6 µM (inconclusive)
AC50 [1]: 31.6 µM (inconclusive)

ClC1=C(Cl)C2(Cl)C3C4C=CC(C4)C3C1(Cl)C2(Cl)Cl (centres undefined) [ALDRIN]
AC50 [1]: 20 µM (inconclusive)

CCOc1cc(/C=C2\SC(=S)N(NC(=O)c3cccnc3)C2=O)ccc1O
IC50 [8]: 25.8 µM (active)
IC50 [9]: > 100 µM (inactive)
IC50 (Prothrombin): 35.7 µM (active)

CN(C)C1(CNC(=O)Nc2ccc(Cl)c(Cl)c2)CCCCC1
CC50 [10]: > 40 µM (active)
EC50 [11]: 1.68 µM (active)

O=C(/C=C/c1cc(Br)ccc1O)c1ccco1
EC50 [12]: > 150 µM (inconclusive)
EC50 [13]: 2.26 µM (active)
CC50 [10]: 7.21 µM (active)
AC50 [14]: 7.73 µM (active)

O=C(N/N=C/c1cc([N+](=O)[O-])ccc1O)c1cc(-c2ccccc2)nc2ccccc12
EC50 [15]: 1.83 µM (active)
EC50 (Streptococcus): 2.65 µM (active)
AC50 (INS1): 1.24 µM (active)
IC50 [8]: 14.8 µM (active)
IC50 [9]: > 100 µM (inactive)
IC50 (Prothrombin): 10.7 µM (active)

CC(C)OC(=O)c1c2c(n3ccccc13)C(=O)c1ccccc1C2=O
AC50 [16]: 2.17 µM (active)
IC50 (cells): 0.44 µM (active)
EC50 [6]: > 99 µM (inactive)
EC50 [7]: > 99 µM (inactive)

CCOC(=O)c1ncn2c1[C@@H]1CCCN1C(=O)c1cc(OC)ccc1-2
AC50 [1]: 25.1 µM (inconclusive)

Cc1cc(C)c2c(N)c(C(=O)N/N=C/c3cccs3)sc2n1
IC50 [8]: 8.64 µM (active)
IC50 [9]: > 100 µM (inactive)
IC50 (Prothrombin): 35.8 µM (active)

Cc1cccc(C(=O)OC2CCCN(C)C2)c1C (centres undefined)
EC50 [11]: 0.841 µM (active)

O=C(CCl)NN=C(c1ccccc1)c1ccccc1
CC50 [10]: 6.85 µM (active)
AC50 [17]: 12.1 µM (active)
EC50 [6]: 61.2 µM (inactive)
EC50 (Protein RecA): 2.71 µM (active)
EC50 [7]: > 99 µM (inactive)

COc1cccc(Nc2nc(-c3ccccc3O)nc3ccccc23)c1
EC50 [6]: > 99 µM (inactive)
EC50 [7]: 40.7 µM (inactive)
